Columns and labels:
Type in all cases: in vivo, mouse
[1] = tested on: B6 male mice; experiment: Blood glucose and intraperitoneal glucose tolerance test after three-month treatment; details: for control of the blood glucose level: three months, conclusion; for blood glucose level in intraperitoneal glucose tolerance test (IPGTT): two-hour period after glucose i.p. injection (2 mg/kg body weight)
Experimental: B6 male mice (8-week-old) were daily subjected for three months to a subcutaneous injection of either vehicle (NaCl 0.9%), Dex, CpdX, CpdX(eA), CpdX(eB), CpdX-D3, CpdX-D3(eA) or CpdX-D3(eB) (1 mg/kg body weight, diluted in vehicle). Mice were over-night-fasted. Mouse blood glucose concentration was measured before (T0) and during two hours (T120) after glucose i.p. injection ([…] body weight).

[2] = tested on: B6 male mice; experiment: Corticosterone synthesis and adrenal gland after three-month treatment; details: for plasmatic corticosterone level: at 10 a.m., compared to control mice (Vehicle); for cortex layers, most notably the fasciculata zone, of the adrenal glands / glomerulosa zone of the adrenal cortex / transcripts of Cyp11a, Cyp11b1 and HSD3β genes in adrenal glands: three months; for cortex layers, most notably the fasciculata zone, of the adrenal glands / glomerulosa zone of the adrenal cortex: histology; for glomerulosa zone of the adrenal cortex: 'but not' = not decreased; for transcripts of Cyp11a, Cyp11b1 and HSD3β genes in adrenal glands: q-RT-PCR
Experimental: B6 male mice (8-week-old) were daily subjected for three months to either a subcutaneous injection of vehicle (NaCl 0.9%), Dex, CpdX, CpdX(eA), CpdX(eB), CpdX-D3, CpdX-D3(eA) or CpdX-D3(eB) (1 mg/kg body weight, diluted in vehicle).
Following this long-term treatment, blood was collected at 10 a.m. and 6 p.m. by retro-orbital puncture in lithium-heparin coated vials, and the plasmatic level of corticosterone was determined. Adrenal glands were harvested and weighted. RNA transcripts were extracted and transcripts of the Cyp11a, Cyp11b1, Cyp11b2 and HSD3β genes were analyzed by q-RT-PCR. Histological analyses of the adrenal glands were also carried out.

[3] = tested on: Balb/C mice; experiment: Ovalbumin (OVA)-induced allergic conjunctivitis; details: 0.1% instillation D22 to D24, 20 minutes after the last OVA challenge
Experimental: To investigate the anti-inflammatory effect of CpdX or CpdX-D3 on an allergic conjunctivitis, Balb/C mice were intraperitoneally sensitized with 50 μg OVA with alum on both days D1 and D8, and then challenged from D15 to D21 with 250 μg OVA in 5 μL of sterilized vehicle (0.9% NaCl), which were directly instilled onto the conjunctival sac. From D22 to D24, mice were divided into several groups, and received instillations with either OVA alone, OVA together with 0.1% of either Dex, CpdX, CpdX(eA), CpdX(eB), CpdX-D3, CpdX-D3(eA) or CpdX-D3(eB).
The clinical appearance of mouse eyes was evaluated 20 minutes after the last instillation on D24. Clinical signs (conjunctival hyperemia, lid edema and tearing) were scored to evaluate the occurrence and severity of conjunctivitis as described by Gimenes et al. (2015. Experimental Eye Research 134:24-32). Parameters were graded on a scale ranging from 0 to 3, (0=absence, 1=mild, 2=moderate, and 3=severe symptoms), each animal receiving a total clinical score ranging from 0 to 9. The data were expressed as mean±SEM with at least four mice per treatment.

[4] = tested on: B6 male mice; experiment: Fatty liver after three-month treatment; details: three months; for lipid deposition in the liver: 5% Red oil staining of frozen sections; for transcripts of fatty acid synthase (FASN) and Stearoyl-CoA desaturase 1 (SCD1) in liver: q-RT-PCR, 'but not' = no increase; for blood cholesterol and bile acids' levels: 'but not' = no clear increase
Experimental: B6 male mice (8-week-old) were daily subjected for three months to a subcutaneous injection of either vehicle (NaCl 0.9%), Dex, CpdX, CpdX(eA), CpdX(eB), CpdX-D3, CpdX-D3(eA) or CpdX-D3(eB) (1 mg/kg body weight, diluted in vehicle). Following this treatment, blood was collected at 10 a.m. by retro-orbital puncture in lithium-heparin coated vials. The plasmatic levels of total cholesterol and bile acids were determined.
Liver samples were harvested. […] RNA transcripts were extracted from liver samples and the transcripts of fatty acid synthase (FASN) and Stearoyl-CoA desaturase 1 (SCD1) genes were analyzed by q-RT-PCR.

[5] = tested on: B6 male mice; experiment: Bone formation after three-month treatment (micro-CT, WNT16 transcripts); details: s.c. 1 mg/kg daily, three months
Experimental: B6 male mice (8-week-old) were daily subjected for three months to either a subcutaneous injection of vehicle (NaCl 0.9%), Dex, CpdX, CpdX(eA), CpdX(eB), CpdX-D3, CpdX-D3(eA) or CpdX-D3(eB) (1 mg/kg body weight, diluted in NaCl 0.9%).
From each animal included in the experiments, one femur and the ipsilateral tibia were dissected and preserved in 70% ethanol for further bone microstructure analysis by micro-CT. The FX Quantum micro-CT scanner (Perkin Elmer) was used to perform measurements at the distal femur and midshaft tibia. All scans were performed with an isotropic voxel size of 10 μm, 160 μA tube current and 90 kV tube voltage.
Morphological 3D measurements were performed using the CTAn software (Bruker). Cortical bone parameters, which were measured in the tibia midshaft, included measures of the bone volume fraction as compared to the total volume, cortical thickness, total area, bone area and marrow area. The region of interest was selected from below the distal tibial crest and continued for 20 slices toward the proximal end of the tibia. Trabecular bone parameters were measured in the distal metaphysis of the femurs and included bone volume fraction, trabecular thickness, trabecular number and trabecular spacing. The region of interest was selected from below the distal growth plate where the epiphyseal cap structure completely disappeared and continued for 100 slices toward the proximal end of the femur.
The statistical significance as compared to vehicle treatment was calculated through one-way ANOVA test followed by Dunn's multiple comparison test, *p<0.05; **p<0.01; ***p<0.001; ****p<0.0001.

[6] = tested on: Balb/C mice; experiment: Dextran sodium sulfate (DSS)-induced ulcerative colitis; details: for pro-inflammatory genes overexpressed in DSS-induced ulcerative colitis (IL-1β, IL-6, IL-17a, IL-17f, TSLP, MMP13): colon, q-RT-PCR, D14; for colonic villus/crypt structure / mucosal and submucosal cell infiltration: i.p. 1 mg/kg on D11, D12, D13, H&E histology
Experimental: To investigate the anti-inflammatory activity of CpdX and CpdX-D3 on a Th17 ulcerative colitis, Balb/C mice were treated with 3% DSS in drinking water for 13 days, with or without an intraperitoneal administration of either Dex, CpdX, CpdX(eA), CpdX(eB), CpdX-D3, CpdX-D3(eA) or CpdX-D3(eB) (1 mg/kg of body weight) on D11, D12 and D13.
At D14, RNA transcripts were extracted from mouse colons. IL-1β, IL-6, IL-17a, IL-17f, TSLP and MMP13 transcripts were analyzed by q-RT-PCR. Colon samples were also harvested for histological analyses (with H&E staining).

[7] = tested on: Balb/C mice; experiment: Skin atrophy after 8-day topical treatment of dorsal skin; details: for epidermal thickness / skin atrophy, histological analysis: eight-day topical treatment; for epidermal thickness: morphometric analysis; for skin atrophy, histological analysis: 'in marked contrast' = no severe atrophy as with Dex; for transcription of the REDD1 gene in dorsal skin: topical 8 days, 1 nmole/cm^2, 'but not' = not increased
Description: To investigate whether, similarly to Dex, a topical administration of CpdX could result in a skin atrophy, Balb/C mice were shaved on the dorsal skin. Ethanol (vehicle), Dex, CpdX or either one of its two enantiomers CpdX(eA) or CpdX(eB), as well as the deuterated form CpdX-D3 or either one of its two enantiomers CpdX-D3(eA) or CpdX-D3(eB), were topically applied onto the dorsal skin for 8 days.
Upon completion of the treatments, RNA transcripts were extracted from dorsal skin samples and the transcripts of Kindlin-1 and REDD1 genes were analyzed by q-RT-PCR. Histological and morphometric analyses of the dorsal skin were also performed.

Row | plasmatic corticosterone level [2] | cortex layers, most notably the fasciculata zone, of the adrenal glands [2] | glomerulosa zone of the adrenal cortex [2] | transcripts of Cyp11a, Cyp11b1 and HSD3β genes in adrenal glands [2] | lipid deposition in the liver [4] | transcripts of fatty acid synthase (FASN) and Stearoyl-CoA desaturase 1 (SCD1) in liver [4] | blood cholesterol and bile acids' levels [4] | bone formation in cortical and trabecular bones [5] | epidermal thickness [7] | skin atrophy, histological analysis [7] | transcription of the REDD1 gene in dorsal skin [7] | SMILES | control of the blood glucose level [1] | blood glucose level in intraperitoneal glucose tolerance test (IPGTT) [1] | clinical signs of allergic conjunctivitis (conjunctival hyperemia, lid edema and tearing) [3] | pro-inflammatory genes overexpressed in DSS-induced ulcerative colitis (IL-1β, IL-6, IL-17a, IL-17f, TSLP, MMP13) [6] | colonic villus/crypt structure [6] | mucosal and submucosal cell infiltration [6]
1 | much higher | markedly increased | but not | increased | not observed | but not | but not | did not affect | not significantly decreased | in marked contrast | but not | COc1ccc(F)cc1C(C)(C)CC(O)(CNc1ccc2c(c1)COC2=O)C(F)(F)F (racemic) [CpdX, 5-[4-(5-fluoro-2-methoxyphenyl)-2-hydroxy-4-methyl-2-(trifluoromethyl)pentylamino]-isobenzofuran-1(3H)-one] | does not significantly affect | no significant difference | considerably reduced | similarly repressed | almost reestablished | significantly decreased
2 | much higher | markedly increased | but not | increased | not observed | but not | but not | did not affect | not significantly decreased | in marked contrast | but not | [2H]C([2H])([2H])Oc1ccc(F)cc1C(C)(C)CC(O)(CNc1ccc2c(c1)COC2=O)C(F)(F)F (racemic) [CpdX-D3, 5-{4-[2-(methoxy-D3)-5-fluorophenyl]-2-hydroxy-4-methyl-2-(trifluoro-methyl)pentylamino}isobenzofuran-1(3H)-one] | does not significantly affect | no significant difference | considerably reduced | similarly repressed | almost reestablished | significantly decreased
3 | much higher | markedly increased | but not | increased |  | but not | but not | did not affect | not significantly decreased |  | but not | COc1ccc(F)cc1C(C)(C)CC(O)(CNc1ccc2c(c1)COC2=O)C(F)(F)F (single isomer, unassigned) [CpdX(eA), 5-[4-(5-fluoro-2-methoxyphenyl)-2-hydroxy-4-methyl-2-(trifluoromethyl)pentylamino]-isobenzofuran-1(3H)-one] | does not significantly affect | no significant difference | considerably reduced | similarly repressed | almost reestablished | significantly decreased
4 | much higher | markedly increased | but not | increased |  | but not | but not | did not affect | not significantly decreased |  | but not | COc1ccc(F)cc1C(C)(C)CC(O)(CNc1ccc2c(c1)COC2=O)C(F)(F)F (single isomer, unassigned) [CpdX(eB), 5-[4-(5-fluoro-2-methoxyphenyl)-2-hydroxy-4-methyl-2-(trifluoromethyl)pentylamino]-isobenzofuran-1(3H)-one] | does not significantly affect | no significant difference | considerably reduced | similarly repressed | almost reestablished | significantly decreased
